Assay results from patent US11279683B2, “Thiophene derivatives as antiviral agents” (ENYO PHARMA, priority 2016, dated 2022).

What follows are compounds tested on H1N1 (influenza A/New Caledonia/20/99) (assay: microbe, parasite or virus in culture). Conditions: not given.
Format: cell-based
Compound `O=C(Nc1ccc(Cl)cc1)c1c(NC(=O)C2CCCCC2C(=O)O)sc2c1CCC2` (stereo not drawn) [Compound 57, 2-[[3-[(4-Chlorophenyl)carbamoyl]-5,6-dihydro-4H-cyclopenta[b]thiophen-2-yl]carbamoyl]cyclohexane-cis-carboxylic acid] has an IC50 of 7.18 µM.
In the case of `O=C(Nc1ccc(Cl)cc1)c1c(NC(=O)C2CCC(C(=O)O)CC2)sc2c1CCC2` (single isomer, unassigned) [Compound 98, 4-[[3-[(4-chlorophenyl)carbamoyl]-5,6-dihydro-4H-cyclopenta[b]thiophen-2-yl]carbamoyl]cyclohexanecarboxylic acid], the IC50 is reported as 15.9 µM.

Same assay, conditions: Influenza A virus, H1N1, A549, 48 h
`O=C(Nc1ccc(Cl)cc1)c1c(NC(=O)C2CCCCC2C(=O)O)sc2cscc12` (stereo not shown) [Compound 42, 2-[[3-[(4-Chlorophenyl)carbamoyl]thieno[3,4-b]thiophen-2-yl]carbamoyl]cyclohexanecarboxylic acid] was tested, and the IC50 was 3.08 µM.
Work on `O=C(Nc1ccc(Cl)cc1)c1c(NC(=O)C2CCCC2C(=O)O)sc2c1CCC2` (stereo not shown) [Compound 46, 2-[[3-[(4-Chlorophenyl)carbamoyl]-5,6-dihydro-4H-cyclopenta[b]thiophen-2-yl]carbamoyl]cyclopentanecarboxylic acid] yielded an IC50 of 17.4 µM.
Work on `O=C(NCc1cccc(Cl)c1)c1c(NC(=O)C2CCCCC2C(=O)O)sc2c1CCC2` (stereo not shown) [Compound 11, 2-[[3-[(3-Chlorophenyl)methylcarbamoyl]-5,6-dihydro-4H-cyclopenta[b]thiophen-2-yl]carbamoyl]cyclohexanecarboxylic acid] yielded an IC50 of 8.63 µM.
`NS(=O)(=O)N1CCCC(C(=O)Nc2sc3c(c2C(=O)Nc2ccc(Cl)cc2)CCC3)C1` (stereo not shown) [Compound 83, N-[3-[(4-chlorophenyl)carbamoyl]-5,6-dihydro-4H-cyclopenta[b]thiophen-2-yl]-1-sulfamoyl-piperidine-3-carboxamide] gave an IC50 of 5.05 µM.
For `O=C(Nc1cccc(C(F)(F)F)c1)c1c(NC(=O)C2CCCCC2C(=O)O)sc2c1CCC2` (stereo not shown) [Compound 77, 2-[[3-[[3-(Trifluoromethyl)phenyl]carbamoyl]-5,6-dihydro-4H-cyclopenta[b]thiophen-2-yl]carbamoyl]cyclohexanecarboxylic acid], the IC50 was 6.78 µM.
For `O=C(Nc1ccc(N2CCOCC2)cc1)c1c(NC(=O)C2CCCCC2C(=O)O)sc2c1CCC2` (stereo not shown) [Compound 15, 2-[[3-[(4-Morpholinophenyl)carbamoyl]-5,6-dihydro-4H-cyclopenta[b]thiophen-2-yl]carbamoyl]cyclohexanecarboxylic acid], the IC50 was 11.2 µM.
With `CS(=O)(=O)N[C@@H]1CCCC[C@@H]1C(=O)Nc1sc2c(c1C(=O)Nc1ccc(Cl)cc1)CCC2` [Compound 85, N-(4-chlorophenyl)-2-[[(1S,2R)-2-(methanesulfonamido)cyclohexanecarbonyl]amino]-5,6-dihydro-4H-cyclopenta[b]thiophene-3-carboxamide] the IC50 was 5.6 µM.
With `O=C(O)c1ccccc1C(=O)Nc1sc2c(c1C(=O)Nc1ccc(Cl)cc1)CCC2` [Compound 44, 2-[[3-[(4-Chlorophenyl)carbamoyl]-5,6-dihydro-4H-cyclopenta[b]thiophen-2-yl]carbamoyl]benzoic acid] the IC50 was 21.6 µM.
`O=C(Nc1ccc(Cl)cc1)c1c(NC(=O)C2CCN2)sc2c1CCC2` (stereo not shown) [Compound 96, N-[3-[(4-chlorophenyl)carbamoyl]-5,6-dihydro-4H-cyclopenta[b]thiophen-2-yl]azetidine-2-carboxamide] gave an IC50 of 14.1 µM.
`O=C(Nc1cccc(Cl)c1)c1c(NC(=O)C2CCCCC2C(=O)O)sc2c1CCC2` (stereo not shown) [Compound 17, 2-[[3-[(3-Chlorophenyl)carbamoyl]-5,6-dihydro-4H-cyclopenta[b]thiophen-2-yl]carbamoyl]cyclohexanecarboxylic acid] gave an IC50 of 4.88 µM.
`O=C(Nc1ccc(Cl)cc1)c1c(NC(=O)C2CCCCC2C(=O)O)sc2ccccc12` (stereo not shown) [Compound 41, 2-[[3-[(4-Chlorophenyl)carbamoyl]benzothiophen-2-yl]carbamoyl]cyclohexane carboxylic acid] showed an IC50 of 3.53 µM.
`CCc1c(C)sc(NC(=O)C2CCCCC2C(=O)O)c1C(=O)Nc1cccc(Cl)c1` (stereo not shown) [Compound 70, 2-[[3-[(3-Chlorophenyl)carbamoyl]-4-ethyl-5-methyl-2-thienyl]carbamoyl]cyclohexanecarboxylic acid] gave an IC50 of 14.7 µM.
`Cc1ccc(NC(=O)c2c(NC(=O)C3CC=CCC3C(=O)O)sc3c2CCCC3)cc1` (stereo not shown) [Compound 60, 6-[[3-(p-Tolylcarbamoyl)-4,5,6,7-tetrahydrobenzothiophen-2-yl]carbamoyl]cyclohex-3-ene-1-carboxylic acid] gave an IC50 of 54.8 µM.
Compound `O=C(Nc1ccc2c(c1)OCO2)c1c(NC(=O)C2CCCCC2C(=O)O)sc2c1CCC2` (stereo not shown) [Compound 3, 2-[[3-(1,3-Benzodioxol-5-ylcarbamoyl)-5,6-dihydro-4H-cyclopenta[b]thiophen-2-yl]carbamoyl]cyclohexanecarboxylic acid] has an IC50 of 10.3 µM.
In the case of `O=C(Nc1ccc(Cl)cc1)c1c(NC(=O)C2CC=CCC2C(=O)O)sc2c1CCC2` (stereo not shown) [Compound 48, 6-[[3-[(4-Chlorophenyl)carbamoyl]-5,6-dihydro-4H-cyclopenta[b]thiophen-2-yl]carbamoyl]cyclohex-3-ene-1-carboxylic acid], the IC50 is reported as 11.2 µM.
`O=C(NC1CCC(F)(F)CC1)c1c(NC(=O)C2CCCCC2C(=O)O)sc2c1CCC2` (stereo not shown) [Compound 18, 2-[[3-[(4,4-Difluorocyclohexyl)carbamoyl]-5,6-dihydro-4H-cyclopenta[b]thiophen-2-yl]carbamoyl]cyclohexanecarboxylic acid] was tested, and the IC50 was 33 µM.
With `O=C(Nc1ccc(F)c(F)c1)c1c(NC(=O)C2CCCCC2C(=O)O)sc2c1CCC2` (stereo not shown) [Compound 16, 2-[[3-[(3,4-Difluorophenyl)carbamoyl]-5,6-dihydro-4H-cyclopenta[b]thiophen-2-yl]carbamoyl]cyclohexanecarboxylic acid] the IC50 was 10.4 µM.

These compounds were tested on p62 (assay: p62 expression measurement). Conditions: not given.
Format: cell-based
From the text: The autophagy-inducing effect has been assessed by LC3 lipidation assay and by p62 expression measurement.
`O=C(Nc1ccc(Cl)cc1)c1c(NC(=O)C2CCCCC2C(=O)O)sc2cscc12` (stereo not shown) [Compound 42, 2-[[3-[(4-Chlorophenyl)carbamoyl]thieno[3,4-b]thiophen-2-yl]carbamoyl]cyclohexanecarboxylic acid] was tested, and the “p62 expression*” value was “down”.
For `O=C(Nc1ccc(Cl)cc1)c1c(NC(=O)C2CCCCC2C(=O)O)sc2c1CCC2` (stereo not drawn) [Compound 57, 2-[[3-[(4-Chlorophenyl)carbamoyl]-5,6-dihydro-4H-cyclopenta[b]thiophen-2-yl]carbamoyl]cyclohexane-cis-carboxylic acid], the “p62 expression*” value was “down”.
In the case of `O=C(Nc1ccc(Cl)cc1)c1c(NC(=O)C2CCCCC2C(=O)O)sc2ccccc12` (stereo not shown) [Compound 41, 2-[[3-[(4-Chlorophenyl)carbamoyl]benzothiophen-2-yl]carbamoyl]cyclohexane carboxylic acid], the “p62 expression*” value is reported as “down”.
